From patent publication US20240252456A1, “ORAL COMPOSITION, SKIN COSMETIC AND HAIR COSMETIC” (MARUZEN PHARMACEUTICALS CO., LTD., priority 2021, published 2024)

Experiments:
[1] = tested on: Normal human neonatal epidermal keratinocytes (NHEK); experiment: Laminin-332 production promotive action test; type: cell-based; conditions: 25 μmol/L, 48 hours, A/B×100 vs no sample
Experimental: Normal human neonatal epidermal keratinocytes (NHEK) were precultured in a 75 cm^2 flask using normal human epidermal keratinocyte growth medium (KGM), and the cells were collected by a trypsin treatment. The collected cells were diluted with a medium obtained by removing BPE from KGM (KGM-BPE) to a cell density of 1.0×10^5 cells/mL, then seeded with 500 μL per well in a 24-well plate, and cultured for 1 day.
After the culturing was completed, the medium was removed, and 500 μL of the test sample (Sample 1, see Table 11 below for final concentration) dissolved in KGM-BPE was added to each well, and culturing was performed for 48 hours. As a control, culturing was performed in the same manner using KGM-BPE to which no sample was added. After the culturing was completed, 100 μL of the medium supernatant was transferred to an ELISA plate and adsorbed to the plate at 37° C. for 2 hours, and then the amount of adsorbed laminin-332 was measured by ELISA method. From the obtained measurement results, the laminin-332 production promotion rate (%) was calculated using the following equation.
Laminin-332 production promotion rate (%)=A/B×100
Terms in the equation represent the following respective ones. • A: Laminin-332 amount with test sample addition • B: Laminin-332 without sample addition

CLDN4 mRNA = experiment: Claudin-4 (CLDN4) mRNA expression promotive action test; type: cell-based, human; conditions: 100 μmol/L; NHEK, 24 hours, corrected with GAPDH
Experimental: Normal human neonatal epidermal keratinocytes (NHEK) were precultured using normal human epidermal keratinocyte growth medium (KGM), and the cells were collected by a trypsin treatment. The collected cells were diluted with KGM to a cell density of 15×10^4 cells/mL, then seeded with 2 mL portions in a 6-well plate (30×10^4 cells/well), and cultured overnight under conditions of 37° C. and 5% CO2. After culturing, the medium was replaced with normal human epidermal keratinocyte basal medium (KBM, the above KGM without addition of growth additives (hEGF, BPE, insulin, antibacterial agents, hydrocortisone)), and culturing was further performed for 24 hours.
After culturing for 24 hours, the medium was removed, and 2 mL of the test sample (Sample 1, see Table 20 below for final concentrations) dissolved in KBM was added to each well, and culturing was performed under conditions of 37° C. and 5% CO2 for 24 hours. As a control, culturing was performed in the same manner using KBM to which no sample was added. After culturing, the medium was removed, total RNA was extracted using ISOGEN II (available from NIPPON GENE CO., LTD.), each RNA amount was measured using a spectrophotometer, and the total RNA was prepared so as to be 150 ng/μL.
For CLDN4 and GAPDH as an internal standard, the expression levels of mRNA were measured using the above total RNA as a template. […]

[2] = tested on: Rat basophil leukemia cells (RBL-2H3); experiment: Hexosaminidase release suppressive action test; type: cell-based; conditions: 500 μmol/L; RBL-2H3, DNP-specific IgE / DNP-BSA
Experimental: Rat basophil leukemia cells (RBL-2H3) were cultured using spinner modified Eagle's minimum essential medium (S-MEM) containing 15% FBS, and then the cells were collected by a trypsin treatment. The collected cells were diluted with S-MEM containing 15% FBS to a cell density of […], DNP-specific IgE was added to a final concentration of 0.5 μg/mL, and the cells were seeded with 100 μL per well in a 96-well plate and cultured overnight.
After culturing, the medium was removed and the cells were washed twice with 100 μL of Shiraganian buffer solution. […]
After the reaction was completed, 250 μL of 0.1 mol/L Na2CO3/NaHCO3 was added to each well, the absorbance at wavelengths of 415 nm and 650 nm was measured, and the value obtained by subtracting the absorbance at 650 nm from the absorbance at 415 nm was adopted as the corrected value. From the obtained measurement results, the hexosaminidase release suppression rate (%) was calculated using the following equation.
Terms in the equation represent the following respective ones. • A: Absorbance at wavelength 415-650 nm without sample addition • B: Absorbance at wavelength 415-650 nm with test sample addition

SMILES	Laminin-332 production promotion rate [1]	CLDN4 mRNA expression promotion rate (CLDN4 mRNA) [%]	Hexosaminidase release suppression rate [2] [%]
O=C(O)CCc1ccc(O)c(O)c1 [Sample 1, 3,4-Dihydroxyhydrocinnamic acid]	142. 0%	489.7	–
O=C(O)CCc1ccc(O)cc1 [Sample 2, 3-(4-Hydroxyphenyl)propionic acid]	–	–	19.3
